Results on 2 compounds are retold here after patent US7919510B2 (priority 2005, dated 2011).

pIC50: −log10 of the molar value.

The conditions of experiment [1]: human, open pilot study; cited from earlier work.
For experiment [2], the target named is human endothelial constitutive NOS (eNOS) (Homo sapiens, UniProt P29474). Description: biochemical. The conditions noted are these: read-out: h-eNOS IC50.

On to `C/C1=C2/[N-][C@H]([C@H](CC(N)=O)[C@@]2(C)CCC(=O)NC[C@@H](C)OP(=O)([O-])O[C@H]2[C@@H](O)[C@@H](n3cnc4cc(C)c(C)cc43)O[C@@H]2CO)[C@]2(C)N=C(/C(C)=C3N=C(/C=C4N=C1[C@@H](CCC(N)=O)C\4(C)C)[C@@H](CCC(N)=O)[C@]\3(C)CC(N)=O)[C@@H](CCC(N)=O)[C@]2(C)CC(N)=O.[Co+3].[OH-]` [hydroxycobalamin], for which the “patients with a reduction in the frequency of migraine attack of 50%” value in experiment [1] is recorded as 53%.
On to `CN1CCC(n2cnc3cc(NC(=N)c4cccs4)ccc32)CC1` [Compound 59], for which the negative logarithm of the IC50 (pIC50) in experiment [2] is 5.18.
